Source: US11660319B2, “Compositions comprising bacterial strains” (priority 2017, dated 2023)

What was measured:
SHSY5Y = assay: Neurite outgrowth: microscopy and MAP2 gene expression (qPCR); type: cell-based, human
Method: SHSY5Y were plated in 10 cm petri dishes a density of 2×10^6 cells. After 24 h cells were treated in differentiation medium (growth medium containing 1% FBS without RA) with 10% bacteria supernatants or YCFA+, 10 uM RA, 200 uM hexanoic acid or 200 uM valproic acid, for 17 hrs. There after representative images were taken using phase contrast EVOS XL core microscope at 40×/0.65 magnification. Cells were collected, and total RNA was isolated according to RNeasy mini kit protocol (Qiagen). cDNAs were made using the high capacity cDNA reverse transcription kit (Applied Biosystems). Gene expression was measured using qPCR. GAPDH was used as internal control. Fold change was calculated according to the 2^(−ΔΔct) method.
Cells were seeded onto 8 well chamber slides (Marienfeld Laboratory Glassware) at 5×10^4 cells/well overnight and were treated with 10% bacterial supernatant for 24 hrs. For differentiation, cells were treated with 10 nM Retinoic acid for 5 days before treating with bacterial supernatant. Cells were then fixed with 4% paraformaldehyde in PBS for 20 minutes at room temperature (RT). Fixed cells were washed with PBS, and permeabilized with 1% Triton X-100 in PBS for 10 minutes. After washing with PBS, the slides were incubated with blocking buffer (4% BSA/PBS) for 1 hr at RT before adding anti-MAP2 antibody (sc-74421, Santa Cruz Biotechnology Inc) diluted in 1% BSA/PBS for 12 hr at 4° C. They were then washed twice with PBS, followed by incubation with Alexa Flour 488 conjugated anti-mouse (Molecular Probes Inc) and Alexa Flour 594 conjugated Phalloidin (ab 176757, Abcam) for 1 hr at RT. After washing 3× with PBS, the slides were mounted with Vectorshield[…] containing DAPI (Sigma, Aldrich). Slides were viewed using a Zeiss Axioscope microscope equipped with a 63×/1.2 W Korr objective and filter sets suitable for detection of the fluorochromes used. Manual exposure times for the digital acquisition of images immuno-labelled with MAP-2 were kept constant allowing comparison between different wells and treatments. Phalloidin (F-actin) and DAPI exposure times varied to suit the field of view. Randomised fields of view were acquired using a QImaging camera controlled by Image Pro Plus software. Images were saved as TIFs and opened in Adobe Photoshop CC 2015.1.2 and overlays of the MAP-2, DAPI and Phalloidion images overlaid and merged. Representative images were selected to illustrate the differences in abundance and location of the proteins examined

histone deacetylase = assay: Histone deacetylase activity in HT-29 cells (fluorometric kit); type: cell-based; settings: 10% cell free supernatant, 48 hours
Method: Cell free supernatants of stationary phase bacterial cultures were isolated by centrifugation and filtering in a 0.22 uM filter. HT-29 cells were used 3 days' post confluence and stepped down in 1 mL DTS 24 hours prior to commencement of the experiment. The HT-29 cells were challenged with 10% cell free supernatant diluted in DTS and this was left to incubate for 48 hours. […] extraction kit and samples were snap frozen prior to HDAC activity measurement. HDAC activity kit was assessed fluorometrically using the Sigma Aldrich (UK) kit.

HDAC = HDAC inhibition on whole HT-29 cells and HT-29 cell lysate; type: cell-based
Method: Bacterial culture and cell-free supernatant collection Pure cultures of bacteria were grown anaerobically in YCFA broth until they reached their stationary growth phase. Cultures were centrifuged at 5,000×g for 5 minutes and the cell-free supernatant (CFS) was filtered using a 0.2 μM filter (Millipore, UK). 1 mL aliquots of the CFS were stored at −80° C. until use. Sodium butyrate, hexanoic and valeric acid were obtained from Sigma Aldrich (UK) and suspensions were prepared in YCFA broth.
To investigate which metabolites were responsible for the strain-induced HDAC inhibition, different concentrations of hexanoic acid, valeric acid and sodium butyrate were measured for their HDAC inhibition on whole HT-29 cells and on HT-29 cell lysate.

HDAC1 = molecular target: T1, HDAC1 (Homo sapiens, UniProt Q13547); assay: Specific HDAC activity analysis (fluorogenic assay kit, BPS Bioscience); type: biochemical; settings: cell free supernatant diluted 1 in 10
T1 construct: purchased BPS Bioscience, CA
Method: (§1) Specific HDAC inhibition activity was analysed for HDAC1, 2, 3, 4, 5, 6, 9 using fluorogenic assay kits for each type of HDAC (BPS Bioscience, CA). Assays were conducted according to manufacturer's instructions and each sample were performed in replicates. Cell free supernatants were diluted 1 in 10 and exposed to specific HDAC proteins provided in the kit to maintain consistency between methods.

HDAC2 = molecular target: T2, HDAC2 (Homo sapiens, UniProt Q92769); assay: as above; type: biochemical; settings: cell free supernatant diluted 1 in 10
T2 construct: purchased BPS Bioscience, CA
Method: as §1

HDAC3 = molecular target: T3, HDAC3 (Homo sapiens, UniProt O15379); assay: as above; type: biochemical; settings: cell free supernatant diluted 1 in 10
T3 construct: purchased BPS Bioscience, CA
Method: as §1

class II HDACs = assay: as above; type: biochemical; settings: data not shown
Method: as §1
The specific HDAC inhibition profile of the test bacteria strain was investigated. Specific HDAC inhibition assays (BPS Bioscience, CA) were carried out for Class I and Class II HDACs. The ability of the bacterial strain to inhibit HDAC enzymes was compared to butyrate, hexanoic and valeric acid (FIGS. 14 and 15).

BALBc mice = assay: Monoamine analysis in brainstem of mice fed with bacteria (HPLC); type: in vivo, mouse; settings: 1×10^9 CFU oral gavage 6 days
Method: Animals were allowed to habituate to their holding room for one week after arrival into the animal unit. They receive oral gavage (200 μL dose) of live biotherapeutics at a dose of 1×10^9 CFU for 6 consecutive days between 15:00 and 17:00. On day 7, the animals are decapitated, and tissues are harvested for experimentation.
Neurotransmitter concentration was analysed by HPLC on samples from the brainstem. Briefly, brainstem tissue was sonicated in 500 μl of chilled mobile phase spiked with 4 ng/40 μl of N-Methyl 5-HT (Sigma Chemical Co., UK) as internal standard. The mobile phase contained 0.1 M citric acid, 5.6 mM octane-1-sulphonic acid (Sigma), 0.1 M sodium dihydrogen phosphate, 0.01 mM EDTA (Alkem/Reagecon, Cork) and 9% (v/v) methanol (Alkem/Reagecon) and was adjusted to pH 2.8 using 4 N sodium hydroxide (Alkem/Reagecon). Homogenates were then centrifuged for 15 min at 22,000×g at 4° C. and 40 μl of the supernatant injected onto the HPLC system which consisted of a SCL 10-Avp system controller, LECD 6A electrochemical detector (Shimadzu), a LC-10AS pump, a CTO-10A oven, a SIL-10A autoinjector (with sample cooler maintained at 40 C) and an online Gastorr Degasser (ISS, UK). A reverse-phase column (Kinetex 2.6 u C18 100×4.6 mm, Phenomenex) maintained at 30° C. was employed in the separation (Flow rate 0.9 ml/min). The glassy carbon working electrode combined with an Ag/AgCl reference electrode (Shimdazu) operated a +0.8 V and the chromatograms generated were analyzed using Class-VP 5 software (Shimadzu). The neurotransmitters were identified by their characteristic retention times as determined by standard injections, which run at regular intervals during the sample analysis. The ratios of peak heights of analyte versus internal standard were measured and compared with standard injection. Results were expressed as ng of neurotransmitter per g fresh weight of tissue.

mouse Splenocytes = assay: Spleen cytokine assay ex vivo (LPS or ConA stimulation); type: in vivo
Method: Spleens were collected immediately in 5 mL RPMI media following sacrifice and cultured immediately. Spleen cells were first homogenised in this RPMI media, followed by 5 mins incubation with 1 ml of RBC lysis buffer (11814389001 ROCHE, Sigma). A further 10 ml of RPMI media was added, followed by 200G centrifugation for 5 mins. The supernatant was then filtered through 40 um strainer. Cells were counted and seeded (4,000,000/mL media). After 2.5 h of adaptation, cells were stimulated with lipopolysaccharide (LPS-2 μg/ml) or concanavalin A (ConA-2.5 μg/ml) for 24 h. Following stimulation, the supernatants were harvested to assess the cytokine release using Proinflammatory Panel 1 (mouse) V-PLEX Kit (Meso Scale Discovery, Maryland, USA) for TNFα, IL-10, IL-1β, Interferon γ, CXCL2 and IL6. The analyses were performed using MESO QuickPlex SQ 120, SECTOR Imager 2400, SECTOR Imager 6000, SECTOR S 600.
The ex-vivo splenocyte assay involves challenging the splenocytes (cells isolated from the spleen—a main organ involved in immune defense), with a bacterio- or viral-mimetic challenge.

T1 sequence (Q13547 whole entry): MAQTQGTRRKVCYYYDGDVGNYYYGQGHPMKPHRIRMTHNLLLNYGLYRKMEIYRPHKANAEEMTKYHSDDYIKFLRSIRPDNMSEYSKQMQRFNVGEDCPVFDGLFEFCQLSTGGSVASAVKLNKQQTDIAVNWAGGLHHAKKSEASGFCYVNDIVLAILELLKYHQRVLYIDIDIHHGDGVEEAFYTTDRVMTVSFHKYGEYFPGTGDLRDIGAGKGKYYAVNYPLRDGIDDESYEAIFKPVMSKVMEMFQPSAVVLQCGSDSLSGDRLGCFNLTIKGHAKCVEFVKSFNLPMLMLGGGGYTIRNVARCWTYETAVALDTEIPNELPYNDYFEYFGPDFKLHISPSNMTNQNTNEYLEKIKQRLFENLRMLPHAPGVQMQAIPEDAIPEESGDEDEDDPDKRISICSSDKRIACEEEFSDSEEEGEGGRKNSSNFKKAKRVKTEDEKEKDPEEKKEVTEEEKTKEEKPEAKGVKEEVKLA
T2 sequence (Q92769 whole entry): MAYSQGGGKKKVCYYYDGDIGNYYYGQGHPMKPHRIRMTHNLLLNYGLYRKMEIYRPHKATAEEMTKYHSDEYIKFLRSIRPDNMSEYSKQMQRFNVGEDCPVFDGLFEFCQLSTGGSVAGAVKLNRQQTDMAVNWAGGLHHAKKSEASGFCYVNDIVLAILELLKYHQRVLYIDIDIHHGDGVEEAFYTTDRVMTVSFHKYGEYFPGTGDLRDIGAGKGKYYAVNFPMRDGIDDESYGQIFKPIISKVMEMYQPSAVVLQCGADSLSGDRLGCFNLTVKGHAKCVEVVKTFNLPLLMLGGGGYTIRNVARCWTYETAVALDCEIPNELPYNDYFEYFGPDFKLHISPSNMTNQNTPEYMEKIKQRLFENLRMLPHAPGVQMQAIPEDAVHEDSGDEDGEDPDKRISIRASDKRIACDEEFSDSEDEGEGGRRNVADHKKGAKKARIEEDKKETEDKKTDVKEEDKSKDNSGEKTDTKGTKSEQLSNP
T3 sequence (O15379 whole entry): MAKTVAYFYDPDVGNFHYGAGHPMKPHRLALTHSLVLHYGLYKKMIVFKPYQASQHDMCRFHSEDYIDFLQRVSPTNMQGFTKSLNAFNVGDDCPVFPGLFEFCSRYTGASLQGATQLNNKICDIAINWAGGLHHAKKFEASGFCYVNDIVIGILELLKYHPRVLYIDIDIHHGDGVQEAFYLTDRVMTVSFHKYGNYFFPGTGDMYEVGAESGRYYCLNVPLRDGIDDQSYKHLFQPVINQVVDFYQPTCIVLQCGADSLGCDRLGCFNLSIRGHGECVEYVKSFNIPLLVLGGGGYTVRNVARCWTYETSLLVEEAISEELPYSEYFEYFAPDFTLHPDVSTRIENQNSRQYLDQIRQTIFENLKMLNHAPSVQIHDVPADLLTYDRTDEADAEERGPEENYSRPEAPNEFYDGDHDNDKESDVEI
T3 sequence (Q9Y618 395-489 partner limits assumed): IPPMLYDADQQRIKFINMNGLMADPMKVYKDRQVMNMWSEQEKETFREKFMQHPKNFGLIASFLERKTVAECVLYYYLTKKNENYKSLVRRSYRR

## Megasphaera massiliensis [MRx0029]
SHSY5Y; undifferentiated SHSY-5Y cells, 10% bacteria supernatant, 200 uM hexanoic acid or 200 uM valproic acid, 17 hrs
  neurite outgrowth / neuron-like phenotype: induced a neuron-like phenotype
SHSY5Y; undifferentiated neuroblastoma cells, qPCR, GAPDH internal control
  MAP2 expression: significantly upregulates
Histone deacetylase
  levels of histone deacetylase activity: reduce
HDAC; HT-29 cell lysate
  HDAC inhibition, HT29 cell lysate: strong HDAC inhibition
HDAC; whole HT-29 cells
  HDAC inhibition, HT29 whole cell: strong HDAC inhibition
HDAC1
  HDAC1 inhibition: very potent inhibitor
HDAC2
  HDAC2 inhibition: very potent inhibitor
HDAC3
  HDAC3 inhibition: very potent inhibitor
Class II HDACs
  Inhibition of class II HDACs: not as significant
BALBc mice
  5-HIAA in brain: slight increase
  serotonin in brain: slight increase
BALBc mice; p=0.0507
  noradrenaline levels in brain: increased
Mouse Splenocytes; challenge with LPS
  interleukin-6 in splenocytes: reduction
  interleukin-113 in splenocytes: reduction
  levels of interferon-γ in splenocytes: reduction
Mouse Splenocytes; splenocytes
  levels of the chemoattractant CXCL1: increase
